Experimental data taken from patent US8653023B1, “Dual beneficial effect of dopamine enhancing and neuroprotective actions of PKC delta inhibitors for treatment of Parkinson's disease” (Iowa State University Research Foundation, Inc., priority 2006, dated 2014).
Where two headings read alike, the source gives them in different places. * marks the point of attachment. Cbz = O=C(OCc1ccccc1)*; CH2F = FC*

Experiments:
[1] = system: dopaminergic neuronal cells; test: 6-OHDA-induced DNA fragmentation (genomic DNA fragmentation assay); assay type: cell-based
Source text: (§1) The ability of a PKCd inhibitor to decrease PKCd activity, for example, neurodegeneration or apoptotic activity, can be assessed using standard techniques known to one skilled in the art, including commercially available assays. These include apoptotic DNA Ladder assays, Cell Death Detection ELISA^PLUS (from Roche Applied Sciences), Caspase-3 Activity Assay^PLUS (from Roche Applied Sciences), terminal deoxynucleotidyl transferase-mediated dUTP [deoxy-uridine triphosphate] nick end labeling (TUNEL) assays. DNA-binding dyes or stains such as […] or DAPI or propidium iodide may be used to assess nuclear morphology and DNA damage. Kaul S, Kanthasamy A, Kitazawa M, Anantharam V, Kanthasamy A G, Caspase-3 dependent proteolytic activation of protein kinase C delta mediates and regulates 1-methyl-4-phenylpyridinium (MPP^+)-induced apoptotic cell death in dopaminergic cells: relevance to oxidative stress in dopaminergic degeneration. Eur J Neurosci. 2003 September; 18(6):1387-401.

[2] = system: dopaminergic neuronal cells; test: MPP+ induced DNA fragmentation (genomic DNA fragmentation assay); assay type: cell-based
Source text: as §1

For “N-benzyloxycarbonyl-Asp(OMe)-Ile-Pro-Asp(OMe)-FMK (Cbz-D(OMe)IPD(OMe)-CH2F; SMILES CC[C@H](C)[C@H](NC(=O)[C@H](CC(=O)OC)NC(=O)OCc1ccccc1)C(=O)N1CCC[C@H]1C(=O)N[C@@H](CC(=O)OC)C(=O)CF; listed as Homo sapiens)”, the “6-OHDA-induced DNA fragmentation” value [1] was “effectively blocked”, the “6-OHDA-induced DNA fragmentation” value ([1]; concentration as low as 3 μM) was “almost completely inhibits” and the “MPP+ induced DNA fragmentation” value [2] was “inhibited”.
